From patent US20190085024A1, “Alpha-Ketoamide Inhibitors Of Cysteine Proteases” (Phelix Therapeutics, priority 2017, published 2019)
Read-outs that look alike come from different tables or passages of the source.

Key:
MERS WT = assay: microbe, parasite or virus in culture; assay type: cell-based
Cat S = Cat S (Homo sapiens, UniProt P25774); assay: Cat S inhibition; assay type: biochemical
Cathepsin L = Cathepsin L (Homo sapiens, UniProt P07711); assay: Cathepsin L enzyme assay; assay type: biochemical; conditions: Ki by Morrison equation; pH 5.5, substrate Z-Phe-Arg-Amc; read-out: Cat L
Text: Two wells contained DMSO only for controls.
Velocity was converted to μM/sec.

Calpain = Calpain enzyme assay; assay type: biochemical; conditions: Ki by Morrison equation; pH 7.5, 5 mM CaCl2
Cathepsin B = Cathepsin B (Homo sapiens, UniProt P07858); assay: Cathepsin B enzyme assay; conditions: Cat B (μM), Ki by Morrison equation; pH 6.0, substrate Z-Phe-Arg-Amc
[1] = test system: EBOV WT (Ebola Wild Type); assay: microbe, parasite or virus in culture; assay type: cell-based; conditions: read-out: EBOV WT (μM) (Ebola Wild Type)
Cat K = target: T1, Cat K (Homo sapiens, UniProt P43235); assay: Cat K inhibition; assay type: biochemical
T1 sequence (P43235 115-329): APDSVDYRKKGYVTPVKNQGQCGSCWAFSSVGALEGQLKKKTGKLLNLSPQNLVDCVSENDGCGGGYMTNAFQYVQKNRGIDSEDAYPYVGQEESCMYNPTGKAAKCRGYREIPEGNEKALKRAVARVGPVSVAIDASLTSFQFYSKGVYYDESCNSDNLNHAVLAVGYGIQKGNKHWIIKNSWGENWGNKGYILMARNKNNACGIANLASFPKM

[2] = Middle East respiratory syndrome-related coronavirus, read-out: MERS WT (μM)

Cat S, sequence (P25774 115-331): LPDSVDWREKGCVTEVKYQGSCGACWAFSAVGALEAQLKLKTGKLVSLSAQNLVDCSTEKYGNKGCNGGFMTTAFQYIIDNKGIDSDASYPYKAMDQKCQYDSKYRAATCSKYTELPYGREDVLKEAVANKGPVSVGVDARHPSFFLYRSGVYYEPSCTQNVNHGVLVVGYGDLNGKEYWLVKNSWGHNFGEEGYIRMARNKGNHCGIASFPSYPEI
Cathepsin L, sequence (P07711 114-333, species assumed): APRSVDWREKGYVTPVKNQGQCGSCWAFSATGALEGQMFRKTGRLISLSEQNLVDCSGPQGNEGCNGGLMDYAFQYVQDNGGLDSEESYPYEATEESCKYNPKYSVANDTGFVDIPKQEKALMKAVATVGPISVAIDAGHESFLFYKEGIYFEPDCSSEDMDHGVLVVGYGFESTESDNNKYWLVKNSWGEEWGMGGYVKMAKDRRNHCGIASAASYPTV

| Compound | IC50 (MERS WT; [2]) [µM] | Ki (Cat S) [nM] | Ki (Cathepsin L) [nM] | Ki (Calpain) [nM] | Ki (Cathepsin B) [µM] | IC50 ([1]; Zaire ebolavirus) [µM] | Ki (Cat K) [nM] | IC50 (MERS WT; read-out: MERS WT) [µM] | IC50 [1] [µM] |
| --- | --- | --- | --- | --- | --- | --- | --- | --- | --- |
| CC(NC(=O)C(Cc1cccc2ccccc12)NC(=O)Cc1ccccc1)C(=O)C(=O)NC(Cc1ccccc1)C(=O)NC(C)(C)C(N)=O (centres unmarked) [PHELIX205, N-(1-((1-amino-2-methyl-1-oxopropan-2-yl)amino)-1-oxo-3-phenylpropan-2-yl)-3-(3-(napthalen-1-yl)-2-(2-phenylacetamido)propanamido)-2-oxobutanamide] | > 10 | 229 | 70.4 | 12500 | 0.977 | 21.9 | 6410 |  |  |
| CC(NC(=O)C(Cc1ccccc1F)NC(=O)Cc1ccccc1)C(=O)C(=O)NC(Cc1ccccc1)C(=O)NC(C)(C)C(N)=O (centres unmarked) [PHELIX207, N-(1-((1-amino-2-methyl-1-oxopropan-2-yl)amino)-1-oxo-3-phenylpropan-2-yl)-3-(3-(2-fluorophenyl)-2-(2-phenylacetamido)propanamido)-2-oxobutanamide] | 195 | 2.6 | 15 | > 10000 | 0.187 | 8.59 | 430 |  |  |
| CC(NC(=O)C(Cc1ccc(F)cc1)NC(=O)Cc1ccccc1)C(=O)C(=O)NC(Cc1ccccc1)C(=O)NC(C)(C)C(N)=O (centres unmarked) [PHELIX208, N-(1-((1-amino-2-methyl-1-oxopropan-2-yl)amino)-1-oxo-3-phenylpropan-2-yl)-3-(3-(4-fluorophenyl)-2-(2-phenylacetamido)propanamido)-2-oxobutanamide] | 184 | 3.73 | 15.4 | > 10000 | 0.42 | 8.15 | 1920 |  |  |
| CC(NC(=O)C(Cc1cccc(C(F)(F)F)c1)NC(=O)Cc1ccccc1)C(=O)C(=O)NC(Cc1ccccc1)C(=O)NC(C)(C)C(N)=O (centres unmarked) [PHELIX209, N-(1-((1-amino-2-methyl-1-oxopropan-2-yl)amino)-1-oxo-3-phenylpropan-2-yl)-2-oxo-3-(2-(2-phenylacetamido)-3-(3-(trifluoromethyl)phenyl)propanamido)butanamide] | > 10 | 39.9 | 66.3 | > 10000 | 0.234 | 7.87 | > 10000 |  |  |
| CC(NC(=O)C(Cc1cccc(F)c1)NC(=O)Cc1ccccc1)C(=O)C(=O)NC(Cc1ccccc1)C(=O)NC(C)(C)C(N)=O (centres unmarked) [PHELIX212, N-(1-((1-amino-2-methyl-1-oxopropan-2-yl)amino)-1-oxo-3-phenylpropan-2-yl)-3-(3-(3-fluorophenyl)-2-(2-phenylacetamido)propanamido)-2-oxobutanamide] | 139 | 13.7 | 20.3 | > 10000 | 0.231 | 7.41 | 1200 |  |  |
| CC(C)CC(NC(=O)C(=O)C(C)NC(=O)C(Cc1ccccc1)NC(=O)Cc1ccccc1)C(=O)NC(C)(C)C(N)=O (centres unmarked) [PHELIX214, N-(1-amino-2-methyl-1-oxopropan-2-yl)-4-methyl-2-(2-oxo-3-(3-phenyl-2-(2-phenylacetamido)propanamido)butanamido)pentanamide] | > 10 | 39.8 | 281 | 85400 | 5.79 | 24.2 | 2460 |  |  |
| CC(NC(=O)C(Cc1ccccc1)NC(=O)Cc1ccccc1)C(=O)C(=O)NC(Cc1ccccc1)C(=O)NC(Cc1ccc2ccccc2c1)C(N)=O (centres unmarked) [PHELIX220, N-(1-((1-amino-3-(naphthalen-2-yl)-1-oxopropan-2-yl)amino)-1-oxo-3-phenylpropan-2-yl)-2-oxo-3-(3-phenyl-2-(2-phenylacetamido)propanamido)butanamide] |  | 0.22 | 0.05 | > 10000 | 5.1 |  | 21.9 | 3.15 | 0.06 |
| CC(NC(=O)C(Cc1ccccc1)NC(=O)Cc1ccccc1)C(=O)C(=O)NC(Cc1ccccc1)C(=O)NC(Cc1ccc(C(C)(C)C)cc1)C(N)=O (centres unmarked) [PHELIX221, N-(1-((1-amino-3-(4-(tert-butyl)phenyl)-1-oxopropan-2-yl)amino)-1-oxo-3-phenylpropan-2-yl)-2-oxo-3-(3-phenyl-2-(2-phenylacetamido)propanamido)butanamide] | 1.32 | 0.19 | 0.02 | > 10000 | 3.57 | 0.03 | 13.6 |  |  |
| CC(NC(=O)C(Cc1ccccc1)NC(=O)c1cccc(F)c1)C(=O)C(=O)NC(Cc1ccccc1)C(=O)NC(C)(C)C(N)=O (centres unmarked) [PHELIX222, N-(1-((4-((1-((1-amino-2-methyl-1-oxopropan-2-yl)amino)-1-oxo-3-phenylpropan-2-yl)amino)-3,4-dioxobutan-2-yl)amino)-1-oxo-3-phenylpropan-2-yl)-3-fluorobenzamide] | 151 | 17.7 | 25 | > 10000 | 1.83 | 5.19 | 3320 |  |  |
| CC(NC(=O)C(Cc1ccccc1)NC(=O)c1ccccc1)C(=O)C(=O)NC(Cc1ccccc1)C(=O)NC(C)(C)C(N)=O (centres unmarked) [PHELIX223, N-(1-((4-((1-((1-amino-2-methyl-1-oxopropan-2-yl)amino)-1-oxo-3-phenylpropan-2-yl)amino)-3,4-dioxobutan-2-yl)amino)-1-oxo-3-phenylpropan-2-yl)benzamide] | 35.3 | 4.44 | 19.9 | > 10000 | 0.246 | 5.61 | 281 |  |  |
| Cc1ccccc1CC(=O)NC(Cc1ccccc1)C(=O)NC(C)C(=O)C(=O)NC(Cc1ccccc1)C(=O)NC(C)(C)C(N)=O (centres unmarked) [PHELIX226, N-(1-((1-amino-2-methyl-1-oxopropan-2-yl)amino)-1-oxo-3-phenylpropan-2-yl)-2-oxo-3-(3-phenyl-2-(2-(o-tolyl)acetamido)propanamido)butanamide] | 114 |  | 9.54 | > 10000 | 0.273 | 5.09 | 1770 |  |  |
| CC(NC(=O)C(Cc1ccccc1)NC(=O)Cc1ccccc1)C(=O)C(=O)NC(Cc1cc2ccccc2[nH]1)C(=O)NC(C)(C)C(N)=O (centres unmarked) [PHELIX232, N-(1-((1-amino-2-methyl-1-oxopropan-2-yl)amino)-3-(1H-indol-2-yl)-1-oxopropan-2-yl)-2-oxo-3-(3-phenyl-2-(2-phenylacetamido)propanamido)butanamide] |  | 147 | 213 | > 10000 | 19.9 |  | 1840 |  |  |
| CCC(C)C(NC(=O)C(Cc1ccccc1)NC(=O)Cc1ccccc1)C(=O)C(=O)NC(Cc1ccccc1)C(=O)NC(C)(C)C(N)=O (centres unmarked) [PHELIX233, N-(1-((1-amino-2-methyl-1-oxopropan-2-yl)amino)-1-oxo-3-phenylpropan-2-yl)-4-methyl-2-oxo-3-(3-phenyl-2-(2-phenylacetamido)propanamido)hexanamide] |  | 2.55 | 8.09 | > 10000 | 0.223 |  | 354 |  |  |
| CC(NC(=O)C(Cc1ccccc1)NC(=O)Cc1ccccc1)C(=O)C(=O)NC(CCCNC(=N)N)C(=O)NC(C)(C)C(N)=O (centres unmarked) [PHELIX234, N-(1-amino-2-methyl-1-oxopropan-2-yl)-5-guanidino-2-(2-oxo-3-(3-phenyl-2-(2-phenylacetamido)propanamido)butanamido)pentanamide] |  | 78.1 | 129 | > 10000 | > 10 |  | 1080 |  |  |
| CC(NC(=O)[C@H](Cc1ccccc1)NC(=O)C(c1ccccc1)c1ccccc1)C(=O)C(=O)N[C@@H](Cc1ccccc1)C(=O)NC(C)(C)C(N)=O (stereo partly drawn) [PHELIX237, N-((S)-1-((1-amino-2-methyl-1-oxopropan-2-yl)amino)-1-oxo-3-phenylpropan-2-yl)-3-((S)-2-(2,2-diphenylacetamido)-3-phenylpropanamido)-2-oxobutanamide] |  | 0.8 | 3.36 | > 10000 | 0.0211 |  | 226 |  |  |
| CC(C)CC(NC(=O)OCc1ccccc1)C(=O)NC(C)C(=O)C(=O)NCC(=O)NC(Cc1ccccc1)C(=O)NCCc1ccccc1 (centres unmarked) [PHELIX238, benzyl (5-benzyl-12,17-dimethyl-4,7,10,11,14-pentaoxo-1-phenyl-3,6,9,13-tetraazaoctadecan-15-yl)carbamate] |  | 20.3 | 3.88 | 91.1 | 0.313 |  | 27.7 |  |  |
| CC(NC(=O)C(Cc1ccccc1)NC(=O)Cc1ccccc1)C(=O)C(=O)NC(Cc1ccccc1)C(=O)NC(C)(C)C(N)=O (centres unmarked) [PHELIX249, N-(1-((1-amino-2-methyl-1-oxopropan-2-yl)amino)-1-oxo-3-phenylpropan-2-yl)-2-oxo-3-(3-phenyl-2-(2-phenylacetamido)propanamido)butanamide] | > 30 | 6.81 | 101 | > 10000 | 0.349 |  | 736 |  |  |
